Test results published in PubChem BioAssay AID623907 (NMMLSC, 2012).

System: mouse and human plasma stability, LC/MS/MS, 180 min
Assay: compound stability in mouse and human plasma, late-stage follow-up, ADME assay for GPR30 and estrogen receptor ligands, biochemical (AID 623907)
Settings: at 1 µM, stronger effect = higher value

percent remaining: 94.5%
percent remaining (measured here: human plasma stability, 180 min): 100%
Compound: COc1cc([N+](=O)[O-])cc2c1NC(C1CC=CCC1)C1CC=CC21 (configuration not stated)
